# According to patent publication US20230172940A1, “METHODS OF EXTENDING LIFESPAN BY ADMINISTERING FERROPTOSIS INHIBITORS” (COLLABORATIVE MEDICINAL DEVELOPMENT, LLC, priority 2020, published 2023):
# Several values for one entry are separate records, joined by “and”; a condition that tells them apart may be missing. Identical values can stand only once. Marks after values point to notes of the source that are not given here.
# Tests used:
# C. elegans strain TJ1060 = assay: Lifespan determination; format: in vivo, Caenorhabditis elegans; conditions: for average increase in median lifespan: 8 independent replicates, 200 μM Lip-1 or 250 μM SIH; for effect on survival curve: in vivo
# Protocol: Lifespan was measured using established protocols. SIH was dissolved in neat dimethyl sulfoxide (DMSO; Sigma-Aldrich) then added to the molten NGM at 55° C. (to a final concentration of 250 μM SIH in 0.5% v/v DMSO). Lip-1 was dissolved in neat DMSO then added to the molten NGM at 55° C. (to a final concentration of 200 μM Lip-1 in 0.5% v/v DMSO). Media containing equivalent vehicle alone (0.5% v/v DMSO) was used for comparison. Standard overnight culture of the Escherichia coli (E. coli) strain OP50 was used as the food source.
# Lifespan data was collected at 25 (±1) ° C. using the temperature sensitive-sterile strain TJ1060 [spe-9(hc88); fer-15(b26)]. A synchronous population was obtained by transferring egg-laying adults to fresh plates at 16° C. for 2-3 hours. The adults were removed and the plates with eggs then transferred to 25° C. to ensure sterility. After 48 hours at 25° C., when worms were at the late L4/young adult stage, 25-35 nematodes were transferred to fresh plates containing either vehicle control, 250 μM SIH, or 200 μM Lip-1. All plates were coded to allowing blinding of the experimenter to the treatment regime during scoring. Nematodes were scored for survival at one to three-day intervals and transferred to freshly prepared plates as needed (2-5 days).
# It is well documented that differences are observed between independent measures of lifespan, with micro-environmental factors such as minor temperature fluctuations potentially resulting differences in median and maximum lifespan between replicates. After determining the optimal doses of 250 μM SIH and 200 μM Lip-1, respectively, cohorts of nematodes were compared in 8 independent replicates. As the number of worms measured is known to influence the likelihood of accurately observing differences in lifespan, the starting populations for all treatments within experiments were in excess of 70 individuals.
# C. elegans = assay: Movement; format: in vivo, Caenorhabditis elegans; conditions: for maximum velocity, 25% Percentile / maximum velocity, 75% Percentile / maximum velocity, Maximum / maximum velocity, Mean / maximum velocity, Median / maximum velocity, Minimum / mean velocity, 25% Percentile / mean velocity, 75% Percentile / mean velocity, Maximum / mean velocity, Mean / mean velocity, Median / mean velocity, Minimum / total distance traveled, 25% Percentile / total distance traveled, 75% Percentile / total distance traveled, Maximum / total distance traveled, Mean / total distance traveled, Median / total distance traveled, Minimum: 250 μM SIH or 200 μM Lip-1, 25° C; for total distance traveled, 25% Percentile / total distance traveled, 75% Percentile / total distance traveled, Maximum / total distance traveled, Mean / total distance traveled, Median / total distance traveled, Minimum: 30 second recording; for age-related decline in mean velocity: Kruskal-Wallis ANOVA H(7)=339.2, p<0.0001; for maximum velocity of aging animals: in vivo
# Protocol: A developmentally synchronous population, derived from eggs laid over a 2-hour window, were cultured on NGA media at 25° C. for 48 h, and then as young adult worms were transferred onto three treatment plates for an additional 24 h. The treatment plates included NGM+0.5% (v/v) DMSO (vehicle control, Ctl), NGM+250 μM SIH, and NGM+200 μM Lip-1 (as described above).
# Single worms were transferred to a 55 mm NGA assay plate devoid of a bacterial lawn, without a lid, and left to recover from the transfer for 2 minutes. Movement of the adults was then recorded using a stereomicroscope (Leica M80) with transmitted illumination from below. A 30 second video recording was captured using a 3 MP DFC290 HD digital camera (Leica Microsystems) at a rate of 30 frames per second. Pixel length was calibrated using a 25 μm grid slide (Microbrightfield, Inc). Recorded series were analysed using the wrMTrck plugin for ImageJ (www.phage.dk/plugins) and Fiji (a distribution of ImageJ).
# The maximum velocity achieved was expressed as mm per second (as derived from the distance between displaced centroids per second). Additional metrics of movement were determined including mean velocity (mm s^−1) and (total) distance travelled (mm). These variables were collated in Prism (v7.0a GraphPad Software) and presented as a scatter plot with medians and interquartile range.
# [1] = 200 μM Lip-1, days of adulthood at 25 (±1)° C, single replicate experiments 1-8
# [2] = 250 μM SIH, days of adulthood at 25 (±1)° C, single replicate experiments 1-8
smiles,measurement,setting,value
"Clc1cccc(CNC2=Nc3ccccc3NC23CCNCC3)c1 [Lip-1, N-[(3-chlorophenyl)methyl]-spiro[piperidine-4,2′(1′H)-quinoxalin]-3′-amine]","% median Ý, Mean of 8 replicates",C. elegans strain TJ1060; 200 μM Lip-1,+72%
same,"max. lifespan, Mean of 8 replicates","C. elegans strain TJ1060; 200 μM Lip-1, 25 (±1)° C",25 days
same,"median lifespan, Mean of 8 replicates","C. elegans strain TJ1060; 200 μM Lip-1, 25 (±1)° C",13 days
same,max. lifespan,C. elegans strain TJ1060; [1],25 days (2×) and 20 days and 24 days (2×) and 26 days (2×) and 27 days
same,median lifespan,C. elegans strain TJ1060; [1],13* days and 11† days and 14* days (4×) and 12* days and 15* days
same,% median Ý (median lifespan vs control),"C. elegans strain TJ1060; 200 μM Lip-1, single replicate experiments 1-8",86% and 38% and 56% (2×) and 100% and 50% and 114% and 75%
same,average increase in median lifespan,C. elegans strain TJ1060,~70%
same,effect on survival curve,C. elegans strain TJ1060,primarily altered late life survival
same,"maximum velocity, 25% Percentile",C. elegans; Day 4,0.2711 mm per second
same,"maximum velocity, 75% Percentile",C. elegans; Day 4,0.4861 mm per second
same,"maximum velocity, Maximum",C. elegans; Day 4,0.7204 mm per second
same,"maximum velocity, Mean",C. elegans; Day 4,0.37 mm per second
same,"maximum velocity, Median",C. elegans; Day 4,0.3762 mm per second
same,"maximum velocity, Minimum",C. elegans; Day 4,0.06351 mm per second
same,"mean velocity, 25% Percentile",C. elegans; Day 4,0.05892 mm s-1
same,"mean velocity, 75% Percentile",C. elegans; Day 4,0.1839 mm s-1
same,"mean velocity, Maximum",C. elegans; Day 4,0.2606 mm s-1
same,"mean velocity, Mean",C. elegans; Day 4,0.1244 mm s-1
same,"mean velocity, Median",C. elegans; Day 4,0.1349 mm s-1
same,"mean velocity, Minimum",C. elegans; Day 4,0.01219 mm s-1
same,"total distance traveled, 25% Percentile",C. elegans; Day 4,1.797 mm
same,"total distance traveled, 75% Percentile",C. elegans; Day 4,5.397 mm
same,"total distance traveled, Maximum",C. elegans; Day 4,7.817 mm
same,"total distance traveled, Mean",C. elegans; Day 4,3.685 mm
same,"total distance traveled, Median",C. elegans; Day 4,4.126 mm
same,"total distance traveled, Minimum",C. elegans; Day 4,0.07633 mm
same,"maximum velocity, 25% Percentile",C. elegans; Day 8,0.1478 mm per second
same,"maximum velocity, 75% Percentile",C. elegans; Day 8,0.2452 mm per second
same,"maximum velocity, Maximum",C. elegans; Day 8,0.5563 mm per second
same,"maximum velocity, Mean",C. elegans; Day 8,0.2084 mm per second
same,"maximum velocity, Median",C. elegans; Day 8,0.1922 mm per second
same,"maximum velocity, Minimum",C. elegans; Day 8,0.05622 mm per second
same,"mean velocity, 25% Percentile",C. elegans; Day 8,0.03386 mm s-1
same,"mean velocity, 75% Percentile",C. elegans; Day 8,0.06818 mm s-1
same,"mean velocity, Maximum",C. elegans; Day 8,0.1644 mm s-1
same,"mean velocity, Mean",C. elegans; Day 8,0.05407 mm s-1
same,"mean velocity, Median",C. elegans; Day 8,0.04763 mm s-1
same,"mean velocity, Minimum",C. elegans; Day 8,0.008319 mm s-1
same,"total distance traveled, 25% Percentile",C. elegans; Day 8,1.001 mm
same,"total distance traveled, 75% Percentile",C. elegans; Day 8,2.092 mm
same,"total distance traveled, Maximum",C. elegans; Day 8,4.926 mm
same,"total distance traveled, Mean",C. elegans; Day 8,1.627 mm
same,"total distance traveled, Median",C. elegans; Day 8,1.451 mm
same,"total distance traveled, Minimum",C. elegans; Day 8,0.2338 mm
same,age-related decline in mean velocity,C. elegans,attenuates the age-related decline in mean velocity
same,maximum velocity of aging animals,C. elegans,markedly improved
"O=C(N/N=C/c1ccccc1O)c1ccncc1 [SIH, Salicylaldehyde isonicotinoyl hydrazone]","% median Ý, Mean of 8 replicates",C. elegans strain TJ1060; 250 μM SIH,+101%
same,"max lifespan, Mean of 8 replicates","C. elegans strain TJ1060; 250 μM SIH, 25 (±1)° C",22 days
same,"median lifespan, Mean of 8 replicates","C. elegans strain TJ1060; 250 μM SIH, 25 (±1)° C",16 days
same,max lifespan,C. elegans strain TJ1060; [2],19 days (2×) and 23 days and 20 days and 18 days and 24 days and 29 days and 26 days
same,median lifespan,C. elegans strain TJ1060; [2],14* days (4×) and 16* days (2×) and 17* days and 20* days
same,% median Ý (median lifespan vs control),"C. elegans strain TJ1060; 250 μM SIH, single replicate experiments 1-8",100% and 75% (2×) and 78% and 129% and 56% and 143% and 150%
same,average increase in median lifespan,C. elegans strain TJ1060,~100%
same,effect on survival curve,C. elegans strain TJ1060,extended mid-life with a squaring of the survival curve
same,"maximum velocity, 25% Percentile",C. elegans; Day 4,0.3442 mm per second
same,"maximum velocity, 75% Percentile",C. elegans; Day 4,0.4755 mm per second
same,"maximum velocity, Maximum",C. elegans; Day 4,0.7127 mm per second
same,"maximum velocity, Mean",C. elegans; Day 4,0.392 mm per second
same,"maximum velocity, Median",C. elegans; Day 4,0.3733 mm per second
same,"maximum velocity, Minimum",C. elegans; Day 4,0.105 mm per second
same,"mean velocity, 25% Percentile",C. elegans; Day 4,0.1307 mm s-1
same,"mean velocity, 75% Percentile",C. elegans; Day 4,0.1824 mm s-1
same,"mean velocity, Maximum",C. elegans; Day 4,0.2629 mm s-1
same,"mean velocity, Mean",C. elegans; Day 4,0.1528 mm s-1
same,"mean velocity, Median",C. elegans; Day 4,0.1545 mm s-1
same,"mean velocity, Minimum",C. elegans; Day 4,0.02713 mm s-1
same,"total distance traveled, 25% Percentile",C. elegans; Day 4,3.977 mm
same,"total distance traveled, 75% Percentile",C. elegans; Day 4,5.513 mm
same,"total distance traveled, Maximum",C. elegans; Day 4,6.951 mm
same,"total distance traveled, Mean",C. elegans; Day 4,4.619 mm
same,"total distance traveled, Median",C. elegans; Day 4,4.766 mm
same,"total distance traveled, Minimum",C. elegans; Day 4,0.8402 mm
same,"maximum velocity, 25% Percentile",C. elegans; Day 8,0.174 mm per second
same,"maximum velocity, 75% Percentile",C. elegans; Day 8,0.3506 mm per second
same,"maximum velocity, Maximum",C. elegans; Day 8,0.6458 mm per second
same,"maximum velocity, Mean",C. elegans; Day 8,0.2847 mm per second
same,"maximum velocity, Median",C. elegans; Day 8,0.2513 mm per second
same,"maximum velocity, Minimum",C. elegans; Day 8,0.1028 mm per second
same,"mean velocity, 25% Percentile",C. elegans; Day 8,0.04028 mm s-1
same,"mean velocity, 75% Percentile",C. elegans; Day 8,0.1029 mm s-1
same,"mean velocity, Maximum",C. elegans; Day 8,0.1739 mm s-1
same,"mean velocity, Mean",C. elegans; Day 8,0.07262 mm s-1
same,"mean velocity, Median",C. elegans; Day 8,0.05813 mm s-1
same,"mean velocity, Minimum",C. elegans; Day 8,0.02239 mm s-1
same,"total distance traveled, 25% Percentile",C. elegans; Day 8,1.224 mm
same,"total distance traveled, 75% Percentile",C. elegans; Day 8,3.193 mm
same,"total distance traveled, Maximum",C. elegans; Day 8,5.235 mm
same,"total distance traveled, Mean",C. elegans; Day 8,2.192 mm
same,"total distance traveled, Median",C. elegans; Day 8,1.784 mm
same,"total distance traveled, Minimum",C. elegans; Day 8,0.6912 mm
same,age-related decline in mean velocity,C. elegans,attenuates the age-related decline in mean velocity
same,maximum velocity of aging animals,C. elegans,markedly improved
